Assays:
[1] = target: hexameric form R6 of lispro insulin (Homo sapiens, UniProt P01308, K53P/P52K); assay: Circular dichroism, CD signal of lispro insulin at 240 nm; details: lispro insulin 100 IU/mL; substituted anionic compound 7.3 mg/mL; citrate 9.3 mM; EDTA 300 μM
[2] = target: T1, hexameric structure of human insulin (Homo sapiens, UniProt P01308); assay: Circular dichroism, CD signal of human insulin at 276 nm; format: physicochemical; details: rhINS 100 IU/ml; Compound 7.3 mg/mL
T1 construct: the insulin is a recombinant human insulin as described in the European pharmacopea and the American pharmacopea
T1 sequence (P01308 25-54 limits assumed): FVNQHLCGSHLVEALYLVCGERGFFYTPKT
T1 sequence (P01308 90-110 limits assumed): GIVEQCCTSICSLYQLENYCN
Experimental: The CD signal at 276 nm is characteristic of the hexameric form of insulin (hexamer signal at about −300°, dimer signal between −200° and −250° and monomer signal below −200°). Loss of the CD signal at 276 nm is thus characteristic of a destabilization of the hexamer into dimers or monomers.

[3] = cited from earlier work

hexameric form R6 of lispro insulin, sequence (P01308 25-54 P52K/K53P limits assumed): as the sequence (P01308 25-54 limits assumed) above, with P28K, K29P counted along it

Molecule | Impact on the R6 form of lispro insulin (CD signal at 240 nm) [1] | Impact on the hexameric structure of human insulin (CD signal at 276 nm) [2] | delay of action when compared with a rapid insulin analog (dissociation of hexamers into dimers and monomers) ([3]; Brange J., et al., 1999) | time after which a hypoglycemiant effect occurs ([3]; injected subcutaneously, diabetic patients) [min]
O=C(O)CN(CCN(CC(=O)O)CC(=O)O)CC(=O)O [EDTA] | completely destructures | very pronounced impact |  | 
O=C(O)CCC(=O)N[C@@H](Cc1ccccc1)C(=O)O [Substituted anionic compound A1, N-(3-carboxy-1-oxopropyl-)-L-phenylalanine] |  | no impact |  | 
O=C(O)CC(O)(CC(=O)O)C(=O)O [citrate] | no impact | no impact |  | 
human insulin: human insulin produced by genetic engineering |  |  | up to 20 minutes | 60

Reference: patent US9795678B2, “Fast-acting insulin composition comprising a substituted anionic compound and a polyanionic compound” (ADOCIA, priority 2014, dated 2017)
